Patent publication US11076595B2, “1-(n,n-disubstituted carbamoyl) 4-(substituted sulfonyl)triazolin-5-one derivative, 4-(n,n-disubstituted carbamoyl) 1-(substituted sulfonyl)triazolin-5-one derivative, and herbicide containing said derivative as active ingredient” (HOKKO CHEMICAL INDUSTRY CO., LTD., priority 2017, dated 2021)

Key:
Assay type in all cases: in vivo
Monochoria vaginalis [1] = assay: Test Example 12: herbicidal effect test by treatment during growing period in paddy field; settings: 120 g/10a; treatment seven days after sowing in flooded paddy pot; assessed 14 days after treatment
Procedure, shortened: (§1)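 Paddy soil + NPK 17:17:17, puddled; 30 seeds/species sown 0–1 cm; flooded ~3 cm, greenhouse. Day 7 post-sowing: EC diluted in water, applied dropwise into water, 120 g a.i./10 are. Day 14 post-treatment: dry weight vs untreated → % suppression; n=2.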

Lindernia pyxidaria [2] = assay: as above; settings: 120 g/10a; treatment seven days after sowing in flooded paddy pot; assessed 14 days after treatment
Procedure, shortened: as §1

Scirpus juncoides [3] = assay: as above; settings: 120 g/10a; treatment seven days after sowing in flooded paddy pot; assessed 14 days after treatment
Procedure, shortened: as §1

Echinochloa crus-galli [4] = assay: as above; settings: 120 g/10a; treatment seven days after sowing in flooded paddy pot; assessed 14 days after treatment
Procedure, shortened: as §1

Chenopodium album [5] = assay: Test Example 13: herbicidal effect test by soil treatment in upland field; settings: 120 g/10a, 14 days after treatment
Procedure, shortened: (§2)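 Pre-emergence soil spray, 1 d post-sowing; emulsifiable concentrate in water, 100 L/10 are, 120 g a.i./10 are. Pots 36 cm^2, alluvial soil, 20 seeds/species in top 1 cm. n=2; read 14 d; suppression % = (1 − treated/untreated mean dry weight) × 100.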

crabgrass [6] = assay: as above; settings: 120 g/10a, 14 days after treatment
Procedure, shortened: as §2

Amaranthus viridis [7] = assay: as above; settings: 120 g/10a, 14 days after treatment
Procedure, shortened: as §2

Echinochloa crus-galli [8] = assay: as above; settings: 120 g/10a, 14 days after treatment
Procedure, shortened: as §2

Chenopodium album [9] = assay: Test Example 14: herbicidal effect test by foliage treatment in upland field; settings: 7 days after sowing, 120 g/10a, 14 days after treatment
Procedure, shortened: (§3)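 Dry-weight read-out: suppression (%) = (1 − mean treated dry weight/mean untreated dry weight)×100, at 14 days post-spray, two replicate plots per concentration. Spray applied 7 days after sowing, 120 g a.i. per 10 are.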

crabgrass [10] = assay: as above; settings: 7 days after sowing, 120 g/10a, 14 days after treatment
Procedure, shortened: as §3

Monochoria vaginalis [11] = assay: Test Example 11: herbicidal effect test by soil treatment in paddy field; settings: 120 g/10a active ingredient, 14 days after treatment
Procedure, shortened: (§4)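 Pre-emergence paddy test, 120 g a.i./10 are, emulsifiable concentrate diluted in water and added dropwise to ~3 cm flood water right after sowing (30 seeds/species, 0–1 cm depth, fertilized puddled soil). Greenhouse; 2 replicates; dry-weight suppression (%) vs untreated, day 14.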

Lindernia pyxidaria [12] = assay: as above; settings: 120 g/10a active ingredient, 14 days after treatment
Procedure, shortened: as §4

Scirpus juncoides [13] = assay: as above; settings: 120 g/10a active ingredient, 14 days after treatment
Procedure, shortened: as §4

Echinochloa crus-galli [14] = assay: as above; settings: 120 g/10a active ingredient, 14 days after treatment
Procedure, shortened: as §4

Amaranthus viridis [15] = assay: Test Example 14: herbicidal effect test by foliage treatment in upland field; settings: 7 days after sowing, 120 g/10a, 14 days after treatment
Procedure, shortened: as §3

Echinochloa crus-galli [16] = assay: as above; settings: 7 days after sowing, 120 g/10a, 14 days after treatment
Procedure, shortened: as §3

Structure (SMILES)	Weed suppression rate (%) Monochoria vaginalis (Monochoria vaginalis [1])	Weed suppression rate (%) Lindemia pyxidaria (Lindernia pyxidaria [2])	Weed suppression rate (%) Scirpus juncoides (Scirpus juncoides [3])	Weed suppression rate (%) Echinochloa crus-galli (Echinochloa crus-galli [4])	herbicidal effect, Chenopodium album (Chenopodium album [5])	herbicidal effect, Crabgrass (crabgrass [6])	herbicidal effect, Amaranthus viridis (Amaranthus viridis [7])	herbicidal effect, Echinochloa crus-galli (Echinochloa crus-galli [8])	herbicidal effect, Chenopodium album (Chenopodium album [9])	herbicidal effect, Crabgrass (crabgrass [10])	Weed suppression rate (%) Monochoria vaginalis (Monochoria vaginalis [11])	Weed suppression rate (%) Lindemia pyxidaria (Lindernia pyxidaria [12])	Weed suppression rate (%) Scirpus juncoides (Scirpus juncoides [13])	Weed suppression rate (%) Echinochloa crus-galli (Echinochloa crus-galli [14])	herbicidal effect, Amaranthus viridis (Amaranthus viridis [15])	herbicidal effect, Echinochloa crus-galli (Echinochloa crus-galli [16])
CC(C)N(C(=O)n1cnn(S(=O)(=O)c2cccs2)c1=O)c1ccc(F)cc1F [Compound 11-1022]	90%	90%	90%	90%	100%	100%	70%	100%	40%	70%	90%	100%	100%	100%	0%	90%
CC(C)N(C(=O)n1cnn(S(=O)(=O)c2cccs2)c1=O)c1ccc(F)cc1Cl [Compound 11-1029]	80%	80%	90%	90%	80%	90%	90%	80%	80%	90%	80%	80%	90%	90%	90%	80%
CC(C)N(C(=O)n1cnn(S(=O)(=O)N(C)C)c1=O)c1ccc(F)cc1 [Compound 11-1056]	80%	80%	90%	90%	80%	90%	90%	80%	80%	90%	80%	80%	90%	90%	90%	80%
CC(C)N(C(=O)n1cnn(S(=O)(=O)N(C)C)c1=O)c1ccc(F)cc1F [Compound 11-1064]	90%	90%	90%	100%	90%	100%	90%	100%	80%	90%	100%	100%	100%	100%	70%	90%
CC(C)N(C(=O)n1cnn(S(=O)(=O)N(C)C)c1=O)c1ccc(F)cc1Cl [Compound 11-1071]	80%	80%	90%	90%	80%	90%	90%	80%	80%	90%	80%	80%	90%	90%	90%	80%
CC(C)N(C(=O)n1cnn(S(=O)(=O)N(C)C)c1=O)c1ccc(Cl)cn1 [Compound 11-1090]	60%	90%	90%	100%	50%	90%	50%	80%	40%	90%	60%	100%	90%	100%	40%	90%
CCN(C)S(=O)(=O)n1ncn(C(=O)N(c2ccc(F)cc2F)C(C)C)c1=O [Compound 11-1098]	80%	70%	70%	100%	100%	100%	90%	100%	80%	90%	80%	100%	100%	100%	90%	80%
CC(C)CN(C)S(=O)(=O)n1ncn(C(=O)N(c2ccc(F)cc2F)C(C)C)c1=O [Compound 11-1101]	80%	80%	90%	90%	80%	90%	90%	80%	80%	90%	90%	90%	90%	90%	90%	80%
CC(C)N(C(=O)n1cnn(S(=O)(=O)N2CCCCC2)c1=O)c1ccc(F)cc1F [Compound 11-1102]	80%	70%	90%	100%	100%	100%	90%	100%	80%	90%	90%	100%	90%	100%	90%	80%
